Measured values published in patent US20190209572A1, “BIFUNCTIONAL ANTIFUNGAL AGENTS AND METHODS OF TREATING FUNGAL INFECTION” (YALE UNIVERSITY, priority 2016, published 2019).

Columns and labels:
[1] = tested on: caspofungin-treated C. albicans cells; assay: Flow cytometry antibody-recruiting assay on C. albicans grown with caspofungin; type: cell-based, Candida albicans
Method: The synergistic experiments with Caspofungin were performed as described above, Save that yeast cell cultures were grown in Sabouraud dextrose broth supplemented with a fixed concentration of Caspofungin acetate from DMSO stock solutions.
Cultures of C. albicans Ca2323 were grown in Sabourad dextrose broth (Hardy Diagnostics, CA) to maintain them in a non-sporulating yeast form (blastopore form). S. cerevisiae YPH499 (Mat type a) were grown in YPD brath (Teknova, CA). Chitin-deficient strain S. cerevisiae YMS348s Δchs 1,2,3 was grown in YPD broth supplemented with 1M sorbitol. The fungal cultures were generally grown overnight at 30° C. for the antibody recruitment and phagocytosis assays. For consistency, O.D. measurements were taken using a single cuvette UltraSpec 10 cell density meter and experiments were performed on cultures with similar density. For experiments involving caspofungin treated C. albicans, the cells were grown overnight in media containing 1.25 ng/ml caspofungin acetate (Merck, PA). For experiments involving α factor induced arrest, α factor pheromone trifluoroacetate salt (Bachem, Switzerland) was added to a fresh S. cerevisiae YPH499 culture to a final concentration of 5 μg/mL followed by incubation for 1 h. Then, the cells were treated repeatedly with α factor pheromone trifluoroacetate salt (5 μg/mL) and incubated for an additional 2 h.
Fungal cells for the antibody recruitment experiments were always grown to 1.0 O.D. for consistency across experiments. The fungal cells were pelleted, washed, counted on the flow cytometer and re-constituted in FACS buffer of PBS containing 5% BSA at a density of 1×10^5 cells/mL. One microliter of suitably diluted ARM compound followed by 1 μL of 1:100 diluted anti-DNP biotinylated mouse monoclonal antibody (2 mg/mL, Invitrogen, CA) was added to 100 μL of fungal cells in FACS buffer. The reaction was mixed well and incubated in a 37° C. incubator for 30 minutes. Post incubation, washing was performed by adding 1 mL of FACS buffer to the reaction and the cells pelleted by centrifugation at 10000x g for 5 minutes. The pelleted cells were then reconstituted in 100 μl of FACS buffer followed by addition of 1 μL of 1:1000 diluted AF647 labeled streptavidin (0.5 mg/mL, BioLegend, CA) and 1 μL of 100 μg/ml propidium iodide (PromoKine, Germany). […] All experiments consisted of two sets of controls: (i) flow controls: unstained cells, propidium iodide stained cells, secondary reagent stained cells; (ii) background controls: compound 9 lacking DNP motifs, and no ARM-F. The cells were analyzed by flow cytometry on an Attune Nxt flow cytometer (Thermo Fischer Scientific) and the raw data further analyzed using FlowJo software (FlowJo LLC, OR).

[2] = tested on: Candida albicans; assay: Flow cytometry antibody-recruiting assay (anti-DNP antibodies) on C. albicans; type: cell-based
Method: Candida albicans cultures were maintained on Sabouraud dextrose agar (SDA) and yeast cell cultures were grown at 30° C. in Sabouraud dextrose broth with shaking at 225 rpm overnight (OD 1.1-1.3). For the assays, 10^5 cells were taken into 50 μL assay medium (5% BSA in PBS 1x) and treated with a fixed concentration of the indicated ARM-F compound from 100x DMSO stocks followed by imminent addition of 50 μL 500x stock solution of anti-DNP-biotine-xx conjugate antibodies in assay medium. Cells were allowed to incubate for 30 min at r.t., then washed twice with 500 μL assay medium followed by addition of 50 μL 500x stock solution of streptavidin-AlexaFluor 647 conjugate and propidium iodide. […] The cells were allowed to incubate for another 30 min, washed with 500 μL assay medium and antibody recruiting to the cell surface was evaluated via flow cytometry by measuring increasing cell counts in the FL-4 channel negative for FL-3.
A flow-cytometry based assay was developed to assess the antibody recruitment ability of candidate ARM-Fs to isolates of C. albicans. We chose this organism for our studies because it is both a known human pathogen, and readily tractable for experimental manipulations.^[13] Ternary complexes formed from ARM-F, fungal cells and anti-DNP antibodies were detected using an anti-DNP secondary antibody conjugated to Alexa Fluor 647 fluorophore. […]

[3] = tested on: C. albicans; assay: Dual color flow cytometry-based fungal opsono-phagocytosis assay; type: cell-based, Candida albicans
Source text: In the physiological state, neutrophils mediate immune clearance of antibody-opsonized fungal cells.^[18], [19] To mimic this mechanism, we developed a functional assay to analyse ARM-F mediated opsonophagocytosis of fungal cells. The assay is based on two color flow cytometry and operates on the principle of differentiating phagocytosed fungal cells (intracellular) from non-phagocytosed cells (extracellular).^[20] […]
The pro-myeloblast cell line HL-60 was obtained from AtCC and cultured in high serum DMEM-F12 growth medium containing 15% FBS, 1 mM sodium pyruvate, 2 mM L-glutamine, 1X non-essential amino acids with antibiotics penicillin (10 U/mL) and streptomycin (10 μg/mL). […] The cells were counted every 24-48 hours on a Roche Innovatis Cedex XS automated cell counter and generally maintained at a density of 1×10^5 cells/mL. […]
Fungal cells for these experiments were always grown to 1.0 OD and the HL-60 cells to approximately 1×10^5 cells/mL for consistency between experiments. The fungal cells were counted by flow cytometry, pelleted and reconstituted in a fixing solution of ice-cold 70% ethanol and incubated for 1 h. […] After the final wash, the fungal cells were counted again on the flow cytometer and re-constituted in FACS buffer of PBS containing 5% BSA at a density of 2×10^6 cells/mL. […]

[4] = ELISA assay for antibody recruitment on immobilized chitin; type: binding; details: FIG. 9A
Method: Free chitin (0.100 g, Alfa Aesar, United Kingdom) was hydrolyzed by adding 10 ml of conc. HCl for 30 min with gentle stirring. An aliquot of the chilin solution(1 mL) was mixed with 9 ml of PBS to the final concentration of 1 mg/mL. This solution was further diluted to 100 μg/mL with PBS and coated overnight at 4° C. in a 96-well Nunc MaxiSorp microtiter plate. Upon completion, the coated plate was blocked with 2% BSA solution at 37° C. for 3 h. Next, compounds and controls at predetermined dilutions made in the 2% BSA blocking solution were added followed by addition of 2 mg/ml anti-DNP biotinylated antibodies diluted 1:100 (Invitrogen, CA). The plate was covered and incubated at 37° C. for 1 h. The plate was washed 3 times with wash solution (0.2% Tween 20 in PBS) and HRP-labeled streptavidin secondary reagent was added at a dilution 1:10000 in 2% BSA. The plate was incubated again at 37° C. for 1 h followed by washing 3 times with wash solution. HRP substrate TMB Ultra solution (Thermo Fischer, IL) was added to the plates and incubated until suitable color development and the reaction was stopped by adding 100 μL of aq. 1N H2SO4. Quantification was performed by measuring absorbance on a plate reader at 450 nm.

CC[C@H](C)C[C@H](C)CCCCCCCCC(=O)N[C@H]1C[C@@H](O)[C@@H](NCCN)NC(=O)[C@@H]2[C@@H](O)CCN2C(=O)[C@H]([C@H](O)CCN)NC(=O)[C@H]([C@H](O)[C@@H](O)c2ccc(O)cc2)NC(=O)[C@@H]2C[C@@H](O)CN2C(=O)[C@H]([C@@H](C)O)NC1=O [Caspofungin, reference compound]
viability of C. albicans at caspofungin concentrations higher than 1.25 ng/ml ([1]; FIG. 9C): reduced viability

O=C(NCCOCCOCCOCCOCCOCCOCCOCCOCCOCCNc1ccc([N+](=O)[O-])cc1[N+](=O)[O-])c1ccc(Nc2nc(Nc3ccc(/C=C/c4ccc(Nc5nc(Nc6ccc(C(=O)NCCOCCOCCOCCOCCOCCOCCOCCOCCOCCNc7ccc([N+](=O)[O-])cc7[N+](=O)[O-])cc6)nc(N(CCO)CCO)n5)cc4S(=O)(=O)O)c(S(=O)(=O)O)c3)nc(N(CCO)CCO)n2)cc1 [compound 8]
fungal cells that recruited antibodies and were alive ([1]; 1 μM of 8, 1.25 ng/ml caspofungin, FIG. 9C): 90%
dose eliciting antibody recruitment comparable to the maximum possible in the non-caspofungin model ([1]; caspofungin treated C. albicans, FIG. 9D): 10 nM
concentration eliciting maximum response in caspofungin treated cells ([1]; dose ranging, caspofungin treated C. albicans, FIG. 9D): 1 µM
viability of fungal cells during antibody recruitment ([2]; dose-dependent recruitment, FIG. 8B): no loss of viability
C. albicans cells exhibiting AF647 fluorescence ([2]; no caspofungin, FIG. 8A): 35-45%
concentration of maximal phagocytosis response ([3]; bell-shaped curve, FIG. 10C): 10 µM
phagocytosis of C. albicans cells (in words) ([3]; human neutrophils, anti-DNP antibodies, compared to untreated cells): drastic increase in number of phagocytosed fungal cells
binding to chitin (in words) [4]: binds to fungal chitin in a dose-dependent manner
